Measured values published in patent US5591758A, “Organic nitrates, processes for their preparation and their use in the treatment of cardiovascular diseases” (Laboratoires Hoechst, SA, priority 1991, dated 1997).
Several values for one entry are separate records, joined by “and”; a condition that tells them apart may be missing. Equal values may be shown once. Where a name gives a salt, the structure may show the parent alone.

System: unanaesthetised hypertensive dogs
Assay: Haemodynamic effects in unanaesthetised hypertensive dogs
Type: in vivo
Parameters: Δdp/dt / Δdp/dt average: unit not given beside the values; ΔBPs / ΔBPd / ΔLVEDP / ΔBPs average / ΔBPd average / ΔLVEDP average / ΔHR average: unit not given here
Conditions: for ΔBPd average / ΔBPs average / ΔHR average / ΔLVEDP average / Δdp/dt average: n = 3, 3 mg/kg p.o.; for ΔBPd / ΔBPs / ΔHR / ΔLVEDP / Δdp/dt: single dog
Protocol: Haemodynamic effects of the compounds according to the invention in unanaesthetised hypertensive dogs (n=3).
Table VI below and FIG. 1 show more particularly the change in the effect of compound (46) on the various haemodynamic parameters as a function of time, the compound being administered p.o. in a dosage of 3 mg/kg.

[1] = 3 mg/kg p.o., 10 min, monohydrochloride, 3 mg/kg
[2] = 3 mg/kg p.o., 20 min, monohydrochloride, 3 mg/kg
[3] = 3 mg/kg p.o., 30 min, monohydrochloride, 3 mg/kg
[4] = 3 mg/kg p.o., 60 min, monohydrochloride, 3 mg/kg
[5] = 3 mg/kg p.o., 90 min, monohydrochloride, 3 mg/kg
[6] = 3 mg/kg p.o., 120 min, monohydrochloride, 3 mg/kg
[7] = 3 mg/kg p.o., 180 min, monohydrochloride, 3 mg/kg
[8] = 3 mg/kg p.o., 240 min, monohydrochloride, 3 mg/kg
[9] = 3 mg/kg p.o., 300 min, monohydrochloride, 3 mg/kg
[10] = 3 mg/kg p.o., 360 min, monohydrochloride, 3 mg/kg

Structure (SMILES): O=C(CNC(=O)[C@@H]1CSCN1)N[C@H]1CO[C@H]2[C@@H]1OC[C@@H]2O[N+](=O)[O-] [Compound 46, 5-[[2-[[(4-L-Thiazolidinyl)carbonyl]amino]-1oxoethyl]amino]-5-deoxy-2-O-nitro-1,4:3,6-dianhydro-L-iditol monohydrochloride]
- lowering of left ventricular end-diastolic pressure (LVEDP) (3 mg/kg p.o.): significant, pronounced and prolonged
- lowering of systolic blood pressure (BPs) (3 mg/kg p.o.): significant, pronounced and prolonged
- ΔBPd average (10 min): -3
- ΔBPs average (10 min): -5
- ΔHR average (10 min): 3
- ΔLVEDP average (10 min): -1
- Δdp/dt average (10 min): -167
- ΔBPd average (20 min): 0
- ΔBPs average (20 min): -2
- ΔHR average (20 min): 17
- ΔLVEDP average (20 min): -2
- Δdp/dt average (20 min): 33
- ΔBPd average (30 min): 2
- ΔBPs average (30 min): -2
- ΔHR average (30 min): 7
- ΔLVEDP average (30 min): -1
- Δdp/dt average (30 min): 100
- ΔBPd average (60 min): 0
- ΔBPs average (60 min): -22
- ΔHR average (60 min): -7
- ΔLVEDP average (60 min): -4
- Δdp/dt average (60 min): 33
- ΔBPd average (90 min): 3
- ΔBPs average (90 min): -28
- ΔHR average (90 min): 23
- ΔLVEDP average (90 min): -5
- Δdp/dt average (90 min): -33
- ΔBPd average (120 min): 5
- ΔBPs average (120 min): -28
- ΔHR average (120 min): 33
- ΔLVEDP average (120 min): -6
- Δdp/dt average (120 min): 0
- ΔBPd average (180 min): 8
- ΔBPs average (180 min): -25
- ΔHR average (180 min): 32
- ΔLVEDP average (180 min): -5
- Δdp/dt average (180 min): 0
- ΔBPd average (240 min): 8
- ΔBPs average (240 min): -30
- ΔHR average (240 min): 27
- ΔLVEDP average (240 min): -5
- Δdp/dt average (240 min): -133
- ΔBPd average (300 min): 8
- ΔBPs average (300 min): -27
- ΔHR average (300 min): 27
- ΔLVEDP average (300 min): -2
- Δdp/dt average (300 min): 33
- ΔBPd average (360 min): 8
- ΔBPs average (360 min): -23
- ΔHR average (360 min): 13
- ΔLVEDP average (360 min): -4
- Δdp/dt average (360 min): -133
- ΔBPd [1]: -5 and 0
- ΔBPs [1]: -5 and 0 and -10
- ΔHR [1]: 0 and 10
- ΔLVEDP [1]: -1 and 0 and -2
- Δdp/dt [1]: -100 and 0 and -400
- ΔBPd (3 mg/kg p.o., 20 min): 0
- ΔBPs [2]: 0 and -5
- ΔHR [2]: 35 and 0 and 15
- ΔLVEDP [2]: -3 and 0 and -2
- Δdp/dt [2]: 300 and 0 and -200
- ΔBPd [3]: 5 and 0
- ΔBPs [3]: 0 and -5
- ΔHR [3]: 0 and 10
- ΔLVEDP [3]: 0 and -3
- Δdp/dt [3]: 0 and 500 and -200
- ΔBPd [4]: 5 and 0 and -5
- ΔBPs [4]: -25 and -15
- ΔHR [4]: 10 and -10 and -20
- ΔLVEDP [4]: -7 and -3
- Δdp/dt [4]: 0 and 500 and -400
- ΔBPd [5]: 5 and 10 and -5
- ΔBPs [5]: -30 and -25
- ΔHR [5]: 35 and 45 and -10
- ΔLVEDP [5]: -7 and -6 and -3
- Δdp/dt [5]: -200 and 500 and -400
- ΔBPd [6]: 5 and 10 and 0
- ΔBPs [6]: -30 and -25
- ΔHR [6]: 55 and 63 and -20
- ΔLVEDP [6]: -9 and -7 and -2
- Δdp/dt [6]: -400 and 800
- ΔBPd [7]: 10 and 15 and 0
- ΔBPs [7]: -15 and -25 and -35
- ΔHR [7]: 35 and 40 and 20
- ΔLVEDP [7]: -7 and -4
- Δdp/dt [7]: -300 and 500 and -200
- ΔBPd [8]: 10 and 15 and 0
- ΔBPs [8]: -15 and -35 and -40
- ΔHR [8]: 40 and 20
- ΔLVEDP [8]: -7 and -5 and -4
- Δdp/dt [8]: -500 and 500 and -400
- ΔBPd [9]: 10 and 15 and 0
- ΔBPs [9]: -15 and -45 and -40
- ΔHR [9]: 45 and 40 and -5
- ΔLVEDP [9]: -4 and 0 and -3
- Δdp/dt [9]: -300 and 800 and -400
- ΔBPd [10]: 10 and 15 and 0
- ΔBPs [10]: -10 and -25 and -35
- ΔHR [10]: 15 and 10
- ΔLVEDP [10]: -5 and -3 and -4
- Δdp/dt [10]: -500 and 500 and -400
